In a melting point compilation (Tetko et al.; mined from patent text by program, amines drawn as free bases though some values may be those of a salt) one finds melting point data, which are given here for 86 compounds.

A value given as a limit tells only on which side of the number the result lay.

Take `OC(CSc1ccc(Cl)cc1)Cn1ccnc1` (stereo unspecified): the melting point (in general, the temperature of the solid-liquid transition) lay in the range of 108 to 109 °C. For the compound `COC(=O)c1ccc(C(C)(O)c2cc3cc(Cl)ccc3n2S(=O)(=O)c2ccc(C(C)C)cc2)cc1` (stereo unspecified), the melting point was 163 °C.

Compound `O=C(CCCN1CCC(c2ccccc2)(c2ccccc2)CC1)c1ccc(F)cc1` came in with a melting point of 107 to 108 °C.

Regarding `CCCNc1nc(NCCC)nc(N2CCN(C(=O)Nc3cc(C)c(C)nc3OC)CC2)n1`, the melting point was 140 to 143 °C. In the case of `CC(C)(C)OC(=O)N1CCNC(=O)C1Cc1ccc(F)cc1` (stereo unspecified), the melting point was 145 to 147 °C.

In turn, `c1ccc(N2CCNNCC2)cc1` displayed a melting point of 211 to 218 °C. In turn, `COc1ccccc1Oc1c(OC)nn(C)c1NS(=O)(=O)c1ccc(C(C)(C)C)cc1` yielded a melting point of 188 °C.

Turning to `Cc1c(C(=O)Nc2ccc(N3CCC(N(C)CCO)CC3)c(C#N)c2)cnn1-c1ccc(Cl)cc1`, the melting point stood at 186 °C. Compound `CC(=O)c1cccc([N+](=O)[O-])c1Cl` yielded a melting point of 41 to 43 °C. Compound `CSc1cc(C(C)(C)C)c(O)c(C(=O)Nc2ccc(S(=O)(=O)C(F)(F)F)cc2Cl)c1C` returned a melting point of 156 °C.

`CN(C)C1CCCC1Cc1cccc(-c2cccc(N)n2)c1` (stereo unspecified) yielded a melting point of 60 to 80 °C. With `COc1ccc(N2CCN(C(N)=O)C2=O)cc1OC` the figure was 240 °C; with `CS(=O)(=O)N1CCN(c2ccc(O)cc2)CC1`, 205 °C; with `O=C1c2c(O)ccc(O)c2C(=O)c2c(NCCN3CCOCC3)ccc(NCCN3CCOCC3)c21`, 241 to 243 °C. With `CCOCCOc1ccc(-c2ccc3c(c2)C=C(C(=O)Nc2ccc(CN(C)C4CCOCC4)cc2)CCS3(=O)=O)cc1OCCOCC` the figure was 150 to 151 °C. In the case of `COc1cccc(CCNC(=S)Nc2nc3ccccc3[nH]2)c1`, the melting point lay within 161 to 167 °C.

`CC1=Cc2cc3c(cc2C(c2ccc([N+](=O)[O-])c(C)c2)=NN1C(=O)NC1CC1)OCO3` had a melting point of 198 to 202 °C. With `CCN1C(=O)C(C)(C)C(=O)N(C)c2cc(CCN(CCn3cc(C)c4oc(C)cc4c3=O)Cc3cc(C)nn3C)ccc21` the figure was 168 to 170 °C. The value for `COc1ccc2c(Cc3c(Cl)cncc3Cl)nnc(Oc3ccccc3)c2c1` was 130 to 132 °C. Consider `CC(C)(C)NC(=O)c1nn(-c2ccc(C(C)(C)C)cc2)c2c1C1CCC2C1` (stereo unspecified), for which the melting point lay in the range of 148 to 150 °C. For the compound `CONC(=O)c1cc(OC)cc(Oc2cccc(C(F)(F)F)c2)n1`, the melting point was in the range of 91 to 92 °C. As for `CCCc1cc(Cl)c2sc(Cc3ccc(OC)cc3)c(C)c2c1O`, the melting point was in the range of 114 to 116 °C.

`Cc1cc(N2NCCNC2=O)cc(Cl)c1Cc1ccc(Cl)cc1` yielded a melting point of 197 to 198 °C. The value for `CCOC(=O)C=CC(=O)c1ccc(Cl)cc1` was 62.5 to 63.5 °C.

With `O=C(O)c1ccccc1C(=O)c1ccccc1Cl`, the melting point lay within 112 to 116 °C. With `O=C(Nc1cccc2ccccc12)N[C@H]1C[C@H](C(=O)O)Nc2cc(Cl)cc(Cl)c21` (relative stereo) the figure was 241 to 242 °C. For `O=c1[nH]nc(-c2cccc(Cl)c2)c2ncccc12`, the melting point was 268 to 269 °C.

For the compound `CC(=O)Nc1ccc(Oc2ccc3c(c2)OCC(=O)N3)cc1`, the melting point was in the range of 230 to 232 °C.

For `Cc1cccc(C2OCC(OCc3ccccc3)CO2)c1` (stereo unspecified), the melting point lay in the range of 68 to 70 °C. Regarding `c1ccc2nc(COc3ccc(Cc4nnn[nH]4)cc3)ccc2c1`, the melting point was in the range of 173 to 175 °C.

`COC(=O)C1=C(C)NC(C)=C([N+](=O)[O-])C1c1cccc2ncc(-c3ccccc3)cc12` (stereo unspecified): the melting point was 262 °C. With `CCCc1c(OCc2ccc(C(=O)O)cc2F)ccc(C(C)=O)c1O` the figure was 203 to 206 °C; with `CCCCc1cnc(-c2cnc(-c3ccc(F)cc3)nc2)nc1`, 196 °C; with `Oc1ccc2c(c1)COc1c-2cc2ccc(O)cc2c1-c1cc(Cl)cc(Cl)c1`, 252 to 255 °C. With `O=C(c1cccs1)c1cnn2c(-c3cccc(N4CCCC4=O)c3)ccnc12` the figure was greater than 200 °C; with `COc1cc(OC)nc(NC(=O)NS(=O)(=O)c2c3c(Cl)cccc3nn2C)n1`, 171 to 172 °C. The value for `OCCc1ccc(Nc2ncc3c(n2)-c2ccccc2C(c2ccc(Cl)cc2)C3)cc1` (stereo unspecified) was 163 to 164 °C; that for `CN1CC(CN(CCC#N)C(N)=O)CC2c3cccc4[nH]cc(c34)CC21` (stereo unspecified) was 252 to 254 °C. `CC(C)[C@H](N)C(c1ccccc1)c1ccccc1` displayed a melting point of 71 to 72 °C. The value for `Cc1cccnc1N[C@H]1CC[C@H](C2CCCCC2)CC1` was 65 to 67 °C; that for `CC(C)[Si](C#Cc1c2cc3ccccc3cc2c(C#C[Si](C(C)C)(C(C)C)C(C)C)c2cc3ccccc3cc12)(C(C)C)C(C)C` was 210 °C. The value for `N#Cc1c(OCC#CI)nsc1SC(F)F` was 106 to 107 °C; that for `O=C1C(=Cc2ccccc2N2CCNCC2)SCCN1c1ccc(Cl)c(Cl)c1` was 154 to 155 °C; that for `O=c1[nH]c(C(F)(F)C(F)(F)F)nc2ncc(Br)cc12` was 200 to 202 °C. With `Cc1cc2c(c3ccc(=O)[nH]c13)OC(CNC(=O)C(C)(C)NC(=O)OCc1ccccc1)C2` (stereo unspecified) the figure was 220 to 222 °C. `CCCSc1sc(C(=O)OCC)c2c1-c1[nH]ncc1CC2` yielded a melting point of 161 to 162 °C. In turn, `COC(=O)c1cccc2[nH]c3cc4ccccc4c(OC)c3c12` came in with a melting point of 190 to 196 °C. `Clc1c(CBr)c(CBr)cc2ccccc12` yielded a melting point of 108 °C. With `Cc1cnc2cc(NS(=O)(=O)c3cccc(Cl)c3C)ccc2n1` the figure was 159 °C; with `Fc1cccc(NCc2nnc(-c3ccc4c(c3)CCO4)o2)c1`, 166 to 167 °C; with `O=C(COc1ccc(C(=O)OCc2ccccc2)cc1)NN=C1C(=O)Nc2ccc(I)cc21`, 221 °C. With `COc1ccc(Cc2nc(NCCO)c3c(C)c(C#N)sc3n2)cc1OC` the figure was 149 to 151 °C; with `CCCn1c(CCOC)nc2c(N)nc3cc(OC4CCN(C(=O)NC(C)C)CC4)ccc3c21`, 176 to 179 °C.

Compound `N#Cc1cnn2c1NCCC2` displayed a melting point of 206 to 207 °C. In turn, `O=C(O)C1CN(S(=O)(=O)c2ccc3cc(Cl)ccc3c2)CCN1C(=O)C1CCN(c2ccncc2)CC1` (stereo unspecified) gave a melting point of 215 to 220 °C. For the compound `CCCCCc1cc(O)c2c(c1)OC(C)(C)C1=C2CC(C)(C)S1`, the melting point was in the range of 109 to 110 °C. `Nc1ccc(S(=O)c2ccc(Sc3ccc(Cl)c([N+](=O)[O-])c3)cc2)cc1[N+](=O)[O-]` (stereo unspecified) returned a melting point of 170 to 172 °C. `COCc1cccc2oc(C(=O)Nc3ccc(-c4ccc(S(=O)(=O)N(C)C(C(=O)O)C(C)C)cc4)cc3)c(C)c12` (stereo unspecified) registered a melting point of 144 to 146 °C.

Take `CCCCCCCCCCCC(=O)N1c2ccccc2C(=O)N(C(C)C)S1(=O)=O`: the melting point lay within 57.5 to 58.5 °C. Compound `Cc1ccccc1C(=O)Nc1ccc(C(=O)N2CCCC(OCC(=O)N(C)C)c3ccccc32)cc1` (stereo unspecified) gave a melting point of 203 to 204 °C. Compound `C=CC(=O)Nc1cccc2c(=O)c(C)c(-c3ccccc3)oc12` yielded a melting point of 229 to 230 °C. `COC(=O)c1c(-c2ccc(F)cc2)ccc2ccccc12` gave a melting point of 113 to 114 °C. For the compound `BrCCCCCCCn1c(-c2ccccc2)nc(-c2ccccc2)c1-c1ccccc1`, the melting point fell in the range of 69 to 71 °C. `CCc1nn2c(N3CCN(C)CC3)cc(N3CCOCC3)nc2c1S(=O)(=O)c1ccccc1` had a melting point greater than 250 °C.

For the compound `CCCCCCCCCCCP(=O)(c1ccccc1)c1ccccc1`, the melting point came to 69 °C. With `CCOC(=O)C=Cc1ccncc1` the figure was 64 to 66 °C. With `Nc1ncc(-c2cccc(Nc3ccc(-c4ccoc4)cc3[N+](=O)[O-])c2)cn1` the figure was 185 to 186 °C; with `O=C1c2ccccc2C(=O)N1[C@@H]1C=CCC[C@@H]1O` (racemic), 112 to 114 °C; with `COC(=O)C[C@H]1C(=O)OCN1C(=O)OCc1ccccc1`, 90 to 93 °C. The value for `Cc1nc(N)sc1-c1ccnc(Nc2cccc(S(=O)(=O)N3CCOCC3)c2)n1` was 215 to 216 °C. Consider `CC(=O)c1c(C)nc(C)nc1NCc1ccc(Br)cc1`, for which the melting point was in the range of 78 to 80 °C. With `COc1ccc2c(c1)CCC(C1CCC(O)C1(C)CC(C)(C)O)C2` (stereo unspecified) the figure was 123 to 125 °C. The value for `CN(C(=O)c1nnc2ccccc2c1O)c1ccc(Cl)cc1` was 249 to 253 °C. As for `CCCCCCCCCCCCCCCCCCN1C(=O)CCC1=O`, the melting point amounted to 75.8 °C.

Take `CC(C)c1ccc2ncc(C(=O)O)c(O)c2c1`: the melting point stood at 298 °C. With `Cc1nc(-c2ccc(C(F)(F)F)cc2)sc1CSc1ccc(CC(=O)O)cc1` the figure was 202 to 203 °C; with `COc1ccc(NS(=O)(=O)N2CCn3c(c(C(N)=O)c(Cl)c3-c3ccccc3)C2)cc1`, 152 to 154 °C.

Take `CCN(CC)CC(=O)OC1CC2(C)C(C(C)=O)CCC2C2CCC3CC(O)C=CC3(C)C12` (stereo unspecified): the melting point was 134 to 138 °C. In turn, `O=c1c(Cc2ccccc2)coc2cc(OS(=O)(=O)C(F)(F)F)ccc12` had a melting point of 56 to 58 °C.

With `COc1ccc(C2=NN(C(c3ccccc3)c3ccccc3)C(=O)[C@H]3CCCC[C@@H]23)cc1OC` (relative stereo), the melting point lay in the range of 133 to 135 °C. `CCOC(=O)COc1c(C)cc(C)c2c1CC(Br)C2=O` (stereo unspecified) registered a melting point of 71 to 73 °C. The value for `CC(O)C1C(=O)N2C(C(=O)OCc3ccc([N+](=O)[O-])cc3)C(=O)CC12` (mixture of isomers) was 92 to 98 °C; that for `Clc1cccc2c1CCCC2c1c[nH]cn1` (stereo unspecified) was 165 to 169 °C; that for `COC(=O)C(Cl)Cc1cc(F)c(-n2c(=O)cc(C(F)(F)F)n(C)c2=O)cc1[N+](=O)[O-]` (stereo unspecified) was 60 to 65 °C. For `N#Cc1ccc(OC2CCOC2=O)cc1C(F)(F)F` (stereo unspecified), the melting point fell in the range of 107 to 108 °C. Consider `COc1ccc(N(CCCCO)S(=O)(=O)c2c(F)c(F)c(F)c(F)c2F)cc1`, for which the melting point is 88 to 90 °C.
